Test results from patent US11590110B2, “Compositions and methods for reactivating latent immunodeficiency virus using a GSK-3 inhibitor” (priority 2017, dated 2023).

Columns and labels:
[1] = test system: CD4+ T cells; assay: Example 5: basal and compensatory glycolysis, Seahorse glycolytic rate assay; format: cell-based, human; details: 1 μM; 24 hours
Description: ECAR was determined using the Seahorse SF Glycolytic Rate Assay Kit (Agilent, 103344-100) and a Seahorse XF96 Extracellular Flux Analyzer (Seahorse Bioscience). Resting (2×10^5 per well) were seeded onto Cell-Tak-coated wells (354240; Corning) in buffered Seahorse XF RPMI medium (Agilent, 103576-100) supplemented with 10 mM glucose, 2 mM L-glutamine, 1 mM pyruvate and 5 mM HEPES (pH 7.4). Measurements were obtained under basal conditions and after adding 0.5 μM rotenone/antimycin A (103015-100; Seahorse Bioscience), and 2-deoxy-d-glucose (2-DG) at a final well concentration of 50 mM (Agilent Technologies). Basal glycolysis and Proton Efflux Rate (PER) were calculated according to. Lactate measurements were detected using the Cayman L-Lactate Assay Kit (Cayman Chemical, 70010) In brief, 24 hours post treatment, supernatant from 200.000 primary resting and activated CD4^+ T cells was harvested and measured according to the manufacturer's recommendation.

[2] = test system: CD8+ T cells; assay: Example 5: CD8 T-cell viability and cytotoxic effector functions; format: cell-based, human
Description: After drug treatment, human PBMCs were cultured in complete RPMI in the presence of CD107a-BV650 (1:50, 328637, BioLegend) or CD107a-FITC antibodies (1:50, 555800, BD Bioscience) and PMA/ionomycin (50 ng/ml and 1 uM) dor 3.5 hours, adding Brefeldin A and Monensin (eBioscience) for the last hour. Cells were subsequently stained for viability using the viability dyes eFluor 506, (eBioscience) according to the provided protocol. After surface marker staining with the following antibodies (all at 1:100 dilution): CD3-APC-H7 (560176; BD Biosciences), CD8-V450 (560347; BD Biosciences), CD45RA-APC (17-0458; eBioscience), and CCR7-PE-Cy7 (557648; BD Biosciences), cells were permeabilized and fixed using the Foxp3/Transcription Factor Fixation/Permeabilization Concentrate and Diluent kit (eBioscience). Intracellular staining was performed with IFN-γ-PerCP-Cy5.5 antibody (1:100, 560704, BD Bioscience) in FOXP3 perm/wash buffer for 1 h at 4° C. After washing and fixation of the cells in 1% paraformaldehyde/PBS, cells were analyzed by flow cytometry. Final data stems from having gated on CD8hi- and CD8lo-expressing T cells.

[3] = pre-treatment 1 μM 48 hours, then PMA/ionomycin

Structure (SMILES): O=c1sn(-c2cccc3ccccc23)c(=O)n1Cc1ccccc1 [Tideglusib, 4-benzyl-2-(naphthalen-1-yl)-1,2,4-thiadiazolidine-3,5-dione]
- basal glycolysis, mean value [1]: 17.43 pmol/min
- compensatory glycolysis, response to Rot/AA [1]: did not result in an increase
- viability of CD8+ T cells ([2]; 48 hours): did not reduce viability
- IFN-γ production in CD8+ T cells [2, 3]: increase in IFN-γ production
- surface expression of CD107a in CD8+ T cells [2, 3]: increased surface expression of CD107a
